The values that follow come from US20140051679A1, “KINASE INHIBITORS AND METHOD OF TREATING CANCER WITH SAME” (UNIVERISTY HEALTH NETWORKS, priority 2011, published 2014).

For orientation: IC50 means the concentration that inhibits the measured activity by half. What is called GI50 is the concentration that inhibits growth by half.

In one test the target is T1, human TTK (Homo sapiens, UniProt P33981).
T1 construct: amino terminal GST fusion of full length human TTK; purchased Invitrogen
T1 sequence (P33981 1-857): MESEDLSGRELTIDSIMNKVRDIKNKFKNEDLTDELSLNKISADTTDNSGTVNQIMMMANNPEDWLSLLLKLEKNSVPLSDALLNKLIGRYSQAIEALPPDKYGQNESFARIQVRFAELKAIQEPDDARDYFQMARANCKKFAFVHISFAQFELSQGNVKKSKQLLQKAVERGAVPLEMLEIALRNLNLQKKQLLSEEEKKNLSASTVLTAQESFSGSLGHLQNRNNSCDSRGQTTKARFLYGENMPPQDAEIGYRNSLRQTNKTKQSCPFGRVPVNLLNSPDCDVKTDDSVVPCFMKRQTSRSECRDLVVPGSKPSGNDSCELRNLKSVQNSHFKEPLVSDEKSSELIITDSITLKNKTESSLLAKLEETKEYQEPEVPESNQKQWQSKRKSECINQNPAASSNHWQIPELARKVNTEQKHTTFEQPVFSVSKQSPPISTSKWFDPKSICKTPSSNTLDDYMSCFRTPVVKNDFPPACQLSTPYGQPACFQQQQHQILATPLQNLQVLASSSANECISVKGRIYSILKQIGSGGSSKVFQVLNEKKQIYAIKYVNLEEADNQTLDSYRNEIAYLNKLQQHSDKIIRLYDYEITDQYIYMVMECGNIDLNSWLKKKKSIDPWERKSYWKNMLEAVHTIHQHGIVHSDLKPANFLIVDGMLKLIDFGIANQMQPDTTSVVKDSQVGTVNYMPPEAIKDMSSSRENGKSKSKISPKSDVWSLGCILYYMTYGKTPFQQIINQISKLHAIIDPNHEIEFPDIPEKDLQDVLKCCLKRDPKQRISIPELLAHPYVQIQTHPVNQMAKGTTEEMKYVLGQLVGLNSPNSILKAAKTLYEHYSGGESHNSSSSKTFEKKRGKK
The test is described as follows: TTK inhibition assay (indirect ELISA). In kind it is biochemical. The note with it: GST-TTK 0.68 nM, 16 μM ATP; read-out: IC50 Ranges TTK. For orientation: ELISA stands for enzyme-linked immunosorbent assay.

A further test has as its target T2, human PLK4 (Homo sapiens, UniProt O00444).
T2 construct: amino terminal GST fusion of residues 1-391 of human PLK4; made in house; host or cells: E. coli
T2 sequence (O00444 1-391): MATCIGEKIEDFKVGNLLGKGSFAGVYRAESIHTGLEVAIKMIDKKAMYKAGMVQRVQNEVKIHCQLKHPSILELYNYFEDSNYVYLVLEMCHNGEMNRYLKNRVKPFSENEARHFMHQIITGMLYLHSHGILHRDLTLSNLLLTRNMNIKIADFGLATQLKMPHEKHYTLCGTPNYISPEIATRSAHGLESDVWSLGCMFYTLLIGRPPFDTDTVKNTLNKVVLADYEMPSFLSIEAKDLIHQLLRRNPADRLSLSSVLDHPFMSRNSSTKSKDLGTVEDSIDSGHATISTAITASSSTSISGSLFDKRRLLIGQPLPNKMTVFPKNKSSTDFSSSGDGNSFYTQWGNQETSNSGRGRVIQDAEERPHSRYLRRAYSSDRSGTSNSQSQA
The test is described as follows: PLK4 inhibition assay (indirect ELISA). It is filed as biochemical. The conditions noted are these: GST-PLK4 4 nM, 15 μM ATP; read-out: IC50 Ranges PLK4. In outline:
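Dephosphorylated GST-tagged human PLK4 (residues 1-391, E. coli), 4 nM, preincubated 15 min with compound, then reacted 30 min with 15 μM ATP on MBP-coated plates (50 mM HEPES pH 7.5, 10 mM MgCl2, 0.01% Brij 35). Phospho-MBP detected by antibody ELISA at 450 nm. Tested at 10 μM or 10-point titrations; IC50 from 4-parameter logistic fit.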

A further test has as its target T3, Aurora B (Homo sapiens, UniProt Q96GD4).
T3 construct: purchased Invitrogen PV3970
As to the kind of experiment: Aurora B inhibition assay (Z-Lyte). In kind it is biochemical. The conditions noted are these: 28 nM Aurora B, 128 μM ATP; read-out: IC50 Ranges Aurora B. As for the experimental part: Aurora B inhibition was determined using the Z-Lyte assay kit from Invitrogen. The assay was performed using the recommended manufacturer's instructions with 128 μM ATP and 28 nM Aurora B (Invitrogen cat #PV3970). The % inhibition values were determined according to the manufacturer's directions and IC50 values were obtained using a non-linear 4 point logistic curve fit (XLfit4, IDBS)

Test [1] has as its system MDA-MB-231 breast cancer cells. As to the kind of experiment: Cell growth inhibition, Sulforhodamine B assay, MDA-MB-231. It is filed as cell-based. The note with it: Homo sapiens, 120 h, 5 days culture, SRB assay, read-out: Cell Line GI50 Range MDA-MB-231. (In general: Sulforhodamine B stains cellular protein and so reports cell mass.)
The test system of test [2] is MDA-MB-468 breast cancer cells. As to the kind of experiment: Cell growth inhibition, Sulforhodamine B assay, MDA-MB-468. In kind it is cell-based. The conditions noted are these: Homo sapiens, 120 h, 5 days culture, SRB assay, read-out: Cell Line GI50 Range MDA-MB-468.
Test [3] concerns HCT116 colon cancer cells. The test is described as follows: Cell growth inhibition, Sulforhodamine B assay, HCT116. It is filed as cell-based. The note with it: Homo sapiens, HCT-116, 120 h, 5 days culture, SRB assay, read-out: Cell Line GI50 Range HCT116.
Procedure: Breast cancer cells (MDA-MB-231, MDA-MB-468), colon cancer cells (HCT116, HT29) and ovarian cancer cells (PA-1, OVCAR-3) were seeded (1000 to 4000 in 80 μl per well depending on the cell growth rate) into 96 well plates 24 hours before compound overlay. Compounds were prepared as 10 mM stock solutions in 100% DMSO which were diluted with DMEM (Dulbecco's Modified Eagle's Medium) cell growth Medium (Invitrogen, Burlington, ON, Canada) containing 10% FBS (Fetal Bovine Serum) to concentrations ranging from 50 nM to 250 μM. Aliquots (20 μl) from each concentration were overlaid to 80 μl of the pre-seeded cells in the 96 well plates to make final concentrations of 10 nM to 50 μM. The cells were cultured for 5 days before the Sulforhodamine B assay (SRB) was performed to determine the compound's cell growth inhibition activity.
Sulforhodamine B (purchased from Sigma, Oakville, ON, Canada) is a water-soluble dye that binds to the basic amino acids of the cellular proteins. Thus, colorimetric measurement of the bound dye provides an estimate of the total protein mass that is related to the cell number. the cells are fixed in situ by gently aspirating off the culture media and adding 50 μl ice cold 10% Trichloroacetic Acid (TCA) per well and incubate at 4° C. for 30-60 min, The plates are washed with water five times and allowed to air dry for 5 min. Addition of 50 μl 0.4% (w/v) SRB solution in 1% (v/v) acetic acid to each well and incubatation for 30 min at RT completes the staining reaction. Following staining, plates are washed four times with 1% acetic acid to remove unbound dye and then allowed to air dry for 5 min. The stain is solubilized with 100 μl of 10 mM Tris pH 10.5 per well. Absorbance is read at 570 nm.
The percentage (%) of relative growth inhibition was calculated by comparing to DMSO treated only cells (100%). […] The GI50 was calculated using GraphPad PRISM software (GraphPad Software, Inc., San Diego, Calif., USA).
A further test deals with HT29 colon cancer cells. As to the kind of experiment: Cell growth inhibition, Sulforhodamine B assay, HT29. It is filed as cell-based. The note with it: Homo sapiens, HT-29, 120 h, 5 days culture, SRB assay, read-out: Cell Line GI50 Range HT29.
The test system of test [4] is PA-1 ovarian cancer cells. As to the kind of experiment: Cell growth inhibition, Sulforhodamine B assay, PA-1. It is filed as cell-based. The note with it: 120 h, 5 days culture, SRB assay, read-out: Cell Line GI50 Range PA-1.
Test [5] has as its system OVCAR-3 ovarian cancer cells. The test is described as follows: Cell growth inhibition, Sulforhodamine B assay, OVCAR-3. In kind it is cell-based. The note with it: Homo sapiens, 120 h, 5 days culture, SRB assay, read-out: Cell Line GI50 Range OVCAR-3.
Test [6] concerns Colon tumor initiating cells (TICs), 12 colon. As to the kind of experiment: Colon tumor-initiating cell growth inhibition (Alamar Blue). In kind it is cell-based. The conditions noted are these: 216 h, 9 days, read-out: GI50 range 12 colon. (In general: The colour change of resazurin is a common sign of viable cells or microbes.)
Source text: Materials and Methods: Non-tissue or tissure cultured treated T-75 flask and 96-well plates were purchased from VWR. Vitamin B-27 supplement, MEM NEAA (minimum essential medium non essential amino acids), sodium pyruvate, L-glutamine, N2 supplement, penicillin-streptomycin and fungizone/amphotericin B were obtained from Invitrogen. Lipid mixture, heparin and EGF were purchased from Sigma; bFGF from BD Biosciences. Colon tumor initiating cells (TICs) were routinely maintained using non-tissue cultured treated T-75 flasks in DMEM:F12 medium containing 0.2XB-27 supplement, 4 ug/ml heparin, 1XMEM NEAA, 1× sodium pyruvate, 1 mM glutamine, 10 pg/ul bFGF, 20 pg/ul EGF, 1×N2 supplement, lipid mixture, penicillin-streptomycin and fungizone/amphotericin B. Ovarian TICs were routinely maintained using tissue cultured treated T-75 flasks in DMEM:F12 medium containing 1XB-27 supplement, 4 ug/ml heparin, 20 pg/ul bFGF, 20 pg/ul EGF and penicillin-streptomycin.
Compounds described herein were dissolved in DMSO and further diluted in cell culture medium for GI50 determination. Colon TICs were trypsinized and seeded into non-tissue cultured treated 96-well plates with 4,000 cells/well. After 24 h, compound was added into the cell culture at different concentrations, and the final concentration of DMSO was adjusted to 0.1%. Cells were then cultured at 37° C. for 9 days. Ovarian TICs were trypsinized and seeded into tissue cultured treated 96-well plates with 1,000 cells/well. After 24 h, compound was added into the cell culture at different concentrations, and the final concentration of DMSO was adjusted to 0.1%. Cells were then cultured at 37° C. for 6 days. Cell viability was assessed by Alamar Blue assay: 10 ul of Alamar Blue was added into each well. After 4 hours incubation at 37° C., fluorescence was recorded at excitation 544 and emission 590. GI50 (Growth inhibition) was calculated using GraphPad Prism 4.0 software.
The test system of test [7] is Ovarian TICs, 2393A ovarian. The test is described as follows: Ovarian tumor-initiating cell growth inhibition (Alamar Blue). In kind it is cell-based. The conditions noted are these: 144 h, 6 days, read-out: GI50 range 2393A ovarian.

T3 sequence (Q96GD4 whole entry): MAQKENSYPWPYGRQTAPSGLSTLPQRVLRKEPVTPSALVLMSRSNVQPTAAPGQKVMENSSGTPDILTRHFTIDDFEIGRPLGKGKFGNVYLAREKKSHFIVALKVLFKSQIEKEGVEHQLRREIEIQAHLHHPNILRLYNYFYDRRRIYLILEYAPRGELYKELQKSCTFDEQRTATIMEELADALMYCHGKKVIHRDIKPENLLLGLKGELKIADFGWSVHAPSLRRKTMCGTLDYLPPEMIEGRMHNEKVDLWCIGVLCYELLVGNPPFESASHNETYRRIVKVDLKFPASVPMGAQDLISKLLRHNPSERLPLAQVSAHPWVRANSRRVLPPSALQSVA

Take `CN1CCC(Oc2ccc(-c3n[nH]c4ccc(C(=O)NC(c5cccs5)C5CC5)cc34)cc2)CC1` (centres unmarked) [Example A147]: the IC50 at human TTK, on human PLK4 and on Aurora B was at most 5 µM throughout. The GI50 (in test [1]; in test [2]; in test [3]; with HT29 colon cancer cells; in test [4]; in [5]) was at most 5 µM throughout. Further, the concentration for 50% growth inhibition (GI50) in test [6] and in [7] was at most 5 µM throughout.

Take `CN1CCC(Oc2ccc(-c3n[nH]c4ccc(C(=O)NC(c5ccccc5)C5CCOCC5)cc34)cc2)CC1` (centres unmarked) [Example A177, 3-(4-((1-methylpiperidin-4-yl)oxy)phenyl)-N-(phenyl(tetrahydro-2H-pyran-4-yl)methyl)-1H-indazole-5-carboxamide]: the IC50 on human TTK, at human PLK4 and at Aurora B was at most 5 µM in each case. Moreover, the GI50 (in test [1]; in test [2]; in [3]; in the test with HT29 colon cancer cells; in test [4]; in test [5]) was at most 5 µM throughout. Moreover, the GI50 in test [6] and in test [7] was at most 5 µM throughout.

With `C[C@@H](NC(=O)c1ccc2[nH]nc(-c3ccc(OC4CCN(C)CC4)cc3)c2c1)c1ccccc1F` [Example A134, (R)—N-(1-(2-fluorophenyl)ethyl)-3-(4-((1-methylpiperidin-4-yl)oxy)phenyl)-1H-indazole-5-carboxamide], the half-maximal inhibitory concentration (IC50) at human TTK, at human PLK4 and on Aurora B was at most 5 µM each time. For the same molecule, the GI50 in test [1] was at most 5 µM; in test [2] it was at most 5 µM; in test [3] it was at most 5 µM; in the test with HT29 colon cancer cells it was at most 5 µM; in test [4] it was at most 5 µM; in test [5], 5 to 20 µM. Also, the GI50 in [6] and in test [7] was at most 5 µM throughout.

For `CN1CCC(Oc2ccc(-c3n[nH]c4ccc(C(=O)N[C@@H](c5sccc5Cl)C5CC5)cc34)cc2)CC1` [Example A166, (R)—N-((3-chlorothiophen-2-yl)(cyclopropyl)methyl)-3-(4-((1-methylpiperidin-4-yl)oxy)phenyl)-1H-indazole-5-carboxamide], the IC50 at human TTK, on human PLK4 and at Aurora B was at most 5 µM in each case. Besides, the concentration for 50% growth inhibition (GI50) (in [1]; in [2]; in test [3]; in the test on HT29 colon cancer cells; in test [4]; in test [5]) was at most 5 µM throughout. For the same molecule, the GI50 in test [6] and in test [7] was at most 5 µM throughout.

As for `COCCN1CCC(Oc2ccc(-c3n[nH]c4ccc(C(=O)N[C@H](c5cccs5)C5CC5)cc34)cc2)CC1` [Example A163, (S)—N-(cyclopropyl(thiophen-2-yl)methyl)-3-(4-((1-(2-methoxyethyl)piperidin-4-yl)oxy)phenyl)-1H-indazole-5-carboxamide], the half-inhibitory concentration (IC50) on human TTK, at human PLK4 and on Aurora B was at most 5 µM throughout. The GI50 (in [1]; in test [2]; in test [3]; in the test with HT29 colon cancer cells; in [4]; in test [5]) was at most 5 µM throughout. For the same molecule, the GI50 in test [6] and in [7] was at most 5 µM in each case.

Turning to `CN1CCC(Oc2ccc(-c3n[nH]c4ccc(C(=O)N[C@H](CCO)c5ccccc5)cc34)cc2)CC1` [Example A137, (R)—N-(3-hydroxy-1-phenylpropyl)-3-(4-((1-methylpiperidin-4-yl)oxy)phenyl)-1H-indazole-5-carboxamide], the IC50 on human TTK, on human PLK4 and on Aurora B was at most 5 µM in each case. For the same molecule, the GI50 (in [1]; in [2]; in [3]; in the test with HT29 colon cancer cells; in test [4]; in test [5]) was at most 5 µM each time. The concentration for 50% growth inhibition (GI50) in test [6] and in test [7] was at most 5 µM each time.

With `Cc1ccccc1C(NC(=O)c1ccc2[nH]nc(-c3ccc(OC4CCN(C)CC4)cc3)c2c1)C1CC1` (centres unmarked) [Example A132, N-(cyclopropyl(o-tolyl)methyl)-3-(4-((1-methylpiperidin-4-yl)oxy)phenyl)-1H-indazole-5-carboxamide], the half-inhibitory concentration (IC50) on human TTK, at human PLK4 and on Aurora B was at most 5 µM throughout. The GI50 (in test [1]; in [2]; in test [3]; with HT29 colon cancer cells; in [4]; in [5]) was at most 5 µM throughout. The GI50 in test [6] and in test [7] was at most 5 µM in each case.

With `CN1[C@@H]2CC[C@H]1C[C@@H](Oc1ccc(-c3n[nH]c4ccc(C(=O)NC(c5ccccc5)C5CC5)cc34)cc1)C2` (stereo partly drawn) [Example A178, N-(cyclopropyl(phenyl)methyl)-3-(4-(((1R,3r,5S)-8-methyl-8-azabicyclo[3.2.1]octan-3-yl)oxy)phenyl)-1H-indazole-5-carboxamide], the IC50 at human TTK, on human PLK4 and at Aurora B was at most 5 µM in each case. For the same molecule, the GI50 (in test [1]; in [2]; in test [3]; in the test with HT29 colon cancer cells; in test [4]; in test [5]) was at most 5 µM throughout. Moreover, the GI50 in [6] and in [7] was at most 5 µM throughout.

As for `COC[C@@H](NC(=O)c1ccc2[nH]nc(-c3ccc(OC4CCN(C)CC4)cc3)c2c1)c1ccccc1` [Example A173, (S)—N-(2-methoxy-1-phenylethyl)-3-(4-((1-methylpiperidin-4-yl)oxy)phenyl)-1H-indazole-5-carboxamide], the IC50 on human TTK and on human PLK4 was at most 5 µM throughout. Besides, the GI50 in [1] is at most 5 µM; in test [2], at most 5 µM; in test [3], at most 5 µM; in the test on HT29 colon cancer cells it was at most 5 µM; in test [4], at most 5 µM; in test [5], 5 to 20 µM. Also, the 50% growth inhibitory concentration (GI50) in [6] and in [7] was at most 5 µM each time.
